From the supplement of paper PMC10307832

How the values were obtained:
Test in all cases: relative viability (nuclei count vs DMSO), 5 days (fraction); higher = more cells survive
AZD5582 + Trametinib = compound: C[C@@H](C(=O)N[C@@H](C1CCCCC1)C(=O)N2CCC[C@H]2C(=O)N[C@@H]3[C@@H](CC4=CC=CC=C34)OCC#CC#CCO[C@@H]5CC6=CC=CC=C6[C@@H]5NC(=O)[C@@H]7CCCN7C(=O)[C@H](C8CCCCC8)NC(=O)[C@H](C)NC)NC [AZD5582] + CC(=O)Nc1cccc(-n2c(=O)n(C3CC3)c(=O)c3c(Nc4ccc(I)cc4F)n(C)c(=O)c(C)c32)c1 [Trametinib] (partner 0.02 µM)
How it was run: (§1)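 Relative viability divides the nuclei count in treated wells by that in vehicle wells. Lung cancer cell lines were seeded in 1536-well plates, dosed by pin tool the next day, and fixed and stained after 5 days in one step with final 0.05% Triton X-100, 1% formaldehyde and 1 ug/ml Hoechst. Dosing was a single drug or a fixed anchor-drug dose plus five library-drug doses (not always all listed) in √10 steps, and values are medians of duplicate plates imaged at 4×.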

AZD5582 + Luminespib = compound: C[C@@H](C(=O)N[C@@H](C1CCCCC1)C(=O)N2CCC[C@H]2C(=O)N[C@@H]3[C@@H](CC4=CC=CC=C34)OCC#CC#CCO[C@@H]5CC6=CC=CC=C6[C@@H]5NC(=O)[C@@H]7CCCN7C(=O)[C@H](C8CCCCC8)NC(=O)[C@H](C)NC)NC [AZD5582] + CCNC(=O)c1noc(-c2cc(C(C)C)c(O)cc2O)c1-c1ccc(CN2CCOCC2)cc1 [Luminespib] (partner 0.01 µM)
How it was run: as §1

[1] = compound: Cn1nnc2c(C(N)=O)ncn2c1=O [Temozolomide] + CS(=O)(=O)N1CCN(Cc2cc3nc(-c4cccc5[nH]ncc45)nc(N4CCOCC4)c3s2)CC1 [Pictilisib] (partner 1 µM)
How it was run: as §1

Temozolomide + Olaparib = compound: Cn1nnc2c(C(N)=O)ncn2c1=O [Temozolomide] + O=C(c1cc(Cc2n[nH]c(=O)c3ccccc23)ccc1F)N1CCN(C(=O)C2CC2)CC1 [Olaparib] (partner 8 µM)
How it was run: as §1

| Cell Line | relative viability (AZD5582 + Trametinib; first compound 0.001581 µM) | relative viability (AZD5582 + Trametinib; first compound 0.005 µM) | relative viability (AZD5582 + Trametinib; first compound 0.01581 µM) | relative viability (AZD5582 + Trametinib; first compound 0.05 µM) | relative viability (AZD5582 + Luminespib; first compound 0.005 µM) | relative viability (AZD5582 + Luminespib; first compound 0.01581 µM) | relative viability (AZD5582 + Luminespib; first compound 0.05 µM) | relative viability ([1]; first compound 0.2 µM) | relative viability ([1]; first compound 0.6325 µM) | relative viability ([1]; first compound 2 µM) | relative viability ([1]; first compound 6.325 µM) | relative viability ([1]; first compound 20 µM) | relative viability (Temozolomide + Olaparib; first compound 0.2 µM) | relative viability (Temozolomide + Olaparib; first compound 0.6325 µM) | relative viability (Temozolomide + Olaparib; first compound 2 µM) | relative viability (Temozolomide + Olaparib; first compound 6.325 µM) | relative viability (Temozolomide + Olaparib; first compound 20 µM) | relative viability (AZD5582 + Luminespib; first compound 0.001581 µM) |
| --- | --- | --- | --- | --- | --- | --- | --- | --- | --- | --- | --- | --- | --- | --- | --- | --- | --- | --- |
| NCI-H1792 | 0.347 | 0.482 | 0.478 | 0.669 | 0.594 | 0.496 | 0.579 | 0.199 | 0.304 | 0.241 | 0.314 | 0.256 | 0.31 | 0.388 | 0.251 | 0.361 | 0.31 | – |
| NCI-H1793 | 0.464 | 0.536 | 0.463 | 0.557 | 0.282 | 0.239 | 0.18 | – | 0.294 | 0.286 | 0.292 | 0.309 | – | 0.943 | 1.07 | 0.685 | 0.506 | 0.23 |
| NCI-H1915 | 0.309 | 0.294 | 0.296 | 0.373 | 0.782 | 0.693 | 0.829 | 1.11 | 0.914 | 0.962 | 0.468 | 0.326 | 0.272 | 0.234 | 0.238 | 0.212 | 0.151 | 0.756 |
| NCI-H1944 | 0.36 | 0.487 | 0.406 | 0.485 | 0.714 | 0.757 | 0.802 | 0.366 | 0.352 | 0.363 | 0.346 | 0.342 | 0.428 | 0.38 | 0.377 | 0.315 | 0.27 | 0.64 |
| NCI-H1975 | 0.444 | 0.434 | 0.448 | 0.322 | 0.282 | 0.174 | 0.353 | 0.272 | 0.308 | 0.311 | 0.302 | 0.311 | 0.779 | 0.77 | 0.798 | 0.744 | 0.699 | 0.255 |
| NCI-H1993 | 0.455 | 0.505 | 0.493 | 0.526 | 1.02 | 0.888 | 0.946 | 0.853 | 0.819 | 0.871 | 0.826 | 0.834 | 0.913 | 1.34 | 1.2 | 0.94 | 0.836 | 0.848 |
| NCI-H2009 | 0.281 | 0.297 | 0.295 | 0.333 | 0.987 | 1.02 | 1.09 | 0.969 | 0.891 | 0.893 | 0.638 | 0.87 | 0.723 | 0.671 | 0.717 | 0.641 | 0.499 | 0.959 |
| NCI-H2023 | 0.421 | 0.525 | 0.595 | 0.36 | 0.615 | 0.788 | 0.65 | 0.254 | 0.225 | 0.248 | 0.207 | 0.265 | 0.539 | 0.444 | 0.463 | 0.373 | 0.26 | 0.745 |
| NCI-H2085 | 0.433 | 0.643 | 0.394 | 0.61 | 0.478 | 0.439 | 0.493 | 0.452 | 0.434 | 0.551 | 0.453 | 0.442 | 0.773 | 0.765 | 0.797 | 0.677 | 0.491 | 0.435 |
| NCI-H2087 | 0.184 | 0.244 | 0.163 | 0.22 | 0.135 | 0.176 | 0.148 | 1.08 | 0.858 | 0.927 | 0.895 | 0.851 | 0.698 | 0.723 | 0.698 | 0.502 | 0.378 | 0.171 |
| NCI-H2126 | 0.581 | 0.594 | 0.594 | 0.614 | 0.831 | 0.84 | 0.811 | 0.475 | 0.554 | 0.489 | 0.511 | 0.457 | 0.875 | 0.903 | 0.852 | 0.921 | 0.831 | 0.817 |
| NCI-H2170 | 0.904 | 0.825 | 0.861 | 1.03 | 0.606 | 0.626 | 0.786 | – | 0.38 | 0.361 | 0.289 | 0.23 | – | 0.514 | 0.466 | 0.245 | 0.137 | 0.798 |
| NCI-H2228 | 0.529 | 0.434 | 0.714 | 0.161 | 0.205 | 0.144 | 0.15 | 0.354 | 0.36 | 0.227 | 0.234 | 0.47 | 0.95 | 0.671 | 0.363 | 0.697 | 0.479 | 0.136 |
| NCI-H2347 | 0.327 | 0.266 | 0.264 | 0.311 | 0.239 | 0.262 | 0.692 | 0.624 | 0.863 | 0.861 | 0.649 | 0.502 | 0.59 | 0.538 | 0.614 | 0.603 | 0.472 | 0.616 |
| NCI-H2405 | 0.705 | 0.739 | 0.545 | 0.709 | 0.924 | 0.733 | 1.08 | 0.392 | 0.434 | 0.487 | 0.338 | 0.465 | 0.896 | 0.831 | 0.998 | 0.832 | 0.492 | 0.892 |
| NCI-H3122 | 0.269 | 0.224 | 0.24 | 0.206 | 0.0812 | 0.0752 | 0.0956 | 0.521 | 0.657 | 0.59 | 0.57 | 0.553 | 0.631 | 0.533 | 0.654 | 0.51 | 0.334 | 0.0928 |
| PC-3 [JPC-3] | 0.668 | 0.627 | 0.696 | 0.486 | 0.67 | 0.638 | 0.557 | 0.71 | 0.775 | 0.798 | 0.774 | 0.296 | 0.909 | 1.16 | 1.12 | 0.988 | 0.435 | 0.628 |
